Patent US5116877A, “Pharmaceutical use for cinnamamide derivatives” (Taisho Pharmaceutical Co., Ltd., priority 1989, dated 1992)

Tests used:
[1] = test system: mesocephalous decerebrate rididity; experiment: Inhibition test of the mesocephalous decerebrate rigidity; type: in vivo, male Wistar rats; conditions: rat
Description: Experiment 1 [Inhibition test of the mesocephalous decerebrate rididity]
The rigidity animals were prepared according to the method of Ono et al [Gen. Pharm., vol. 18, page 57-59 (1987)].
Four male Wistar rats weighing 250 to 350 g were used for each group. The animals were anesthetized with ethyl ether and fixed on a brain stereotaxic apparatus to break the midbrain bilaterally (APO, V-3, L ±1.5). The advanced rigidity occurred in the hind limb with awaking from the ethyl ether anesthesia. The test drugs [A; (E)-N-cyclopropyl-3-(3-chlorophenyl)-2-butenamide, B; (E)-N-cyclopropyl-3-(3-fluorophenyl)-2-butenamide and C; cinflumide] dissolved in propylene glycol were each administered intravenously in the amount of 5 mg/kg or 10 mg/kg (0.1 ml per 100 g of rat), and these test drugs suspended in 0.4% aqueous carboxymethylcellulose solution were each administered intraduodenally in the amount of 50 mg/kg (0.1 ml per 100 g of rat) to determine the inhibition time of the rigidity.

[2] = test system: Anemic Decerebrate rigidity; experiment: Inhibition of anemic decerebrate rigidity; type: in vivo, male Wistar rats; conditions: rat, in polyethylene glycol 400
Description: Experiment 2[Inhibition of Anemic Decerebrate rigidity]
The rigidity animals were prepared according to the method of Fukuda et al [Japan J. Pharmacol., vol. 24, page 810-813 (1974)].
Four male Wistar rats weighing 250 to 350 g were used for each group.
The animals were anesthetized with ethyl ether and carotid artery was ligated bilaterally. A round hole was digged in the suboccipital skeleton and the basal artery was coagulated using a bipolar electrocoagulator. The advanced rigidity occurred on the fore limb with awaking from the ethyl ether anesthesia. The drugs [A; (E)-N-cyclopropyl-3-(3-chlorophenyl)-2-butenamide, B; (E)-N-cyclopropyl-3-(3-fluorophenyl)-2-butenamide, and C; cinflumide] dissolved in polyethylene glycol 400 were each administered intravenously in the amount of 5 mg/kg or 10 mg/kg (0.1 ml per 100 g of rat) to determine the inhibition time of the rigidity.

Straub tail reaction = Straub tail reaction (morphine-induced); type: in vivo, male ICR mice; conditions: mouse, morphine hydrochloride 15 mg/kg s.c.
Description: Experiment 3 [Straub tail reaction]
Test was carried out according to the method of Ellis et al [Neuropharmacology, vol. 13, page 211 to (1974)].
Six male ICR mice weighing 20-30 g were used as the animals for each group. The drugs [A; (E)-N-cyclopropyl-3-(3-chlorophenyl)-2-butenamide, and C; cinflumide] suspended in 0.4% aqueous carboxymethylcellulose solution were each administered orally to the animals in the amounts of 50, 70.7, 100 and 140 mg/kg (0.1 ml per 10 g of mouse). After 15 minutes, 15 mg/kg of morphine hydrochloride were administered subcutaneously. After 30 minutes, the tail-raising reaction was determined. The muscle relaxation activity was judged as positive in case where the drug produces the value of less than 45 degrees of the tail-raising's angle, and the inhibition rate was culculated.

[3] = test system: spontaneous motor activity; experiment: Spontaneous motor activity test; type: in vivo, male ICR mice; conditions: mouse
Description: Experiment 4 [Spontaneous motor activity test]
Six male ICR mice weighing 20-30 g were used as the test animals for each group. The test drugs [A: (E)-N-cyclopropyl-3-(3 chlorophenyl)-2-butenamide and B: (E)-N-cyclopropyl-3-(3-fluorophenyl)-2-butenamide] suspended in 0.4% aqueous carboxymethylcellulose solution were each administered orally to mice in the amounts of 50, 70.7 and 100 mg/kg (0.1 ml per 10 g of mouse). The control group were administered with 0.4% aqueous carboxymethylcellulose solution only. After 15 minute, mice were placed in ANIMEX apparatus (manufactured by Muromachi Kikai K.K.) to determine the spontaneous moter activity for 30 minutes

Acute toxicity test = type: in vivo, male ICR mice; conditions: mouse
Description: Experiment 5 [Acute toxicity test]
Ten male ICR mice weighing 25 to 34 g were used. (E)-N-cyclopropyl-3-(3-chlorophenyl)-2-butenamide suspended in 0.4% aqueous carboxymethylcellulose solution was each administered orally to mice in the amount of 0.1 ml per 10 g of mice. […] The LD50 values were more than 1 g/kg p.o.

[4] = J. Med. Chem., vol. 9 (No. 5), 675-681 (1966); cited from earlier work
[5] = Japanese Patent Publication No. 60-56700; among known cinnamamide derivatives; cited from earlier work
[6] = 5 mg/kg i.v., in propylene glycol
[7] = 10 mg/kg i.v., in propylene glycol
[8] = 50 mg/kg i.d., in 0.4% aqueous carboxymethylcellulose
[9] = 50 mg/kg (head: i.v.; text: orally)
[10] = 70.7 mg/kg (head: i.v.; text: orally)
[11] = 100 mg/kg (head: i.v.; text: orally)
[12] = 140 mg/kg (head: i.v.; text: orally)
[13] = 70.7 mg/kg p.o., control of A 2116.0 ± 256.6, of B 2128.7 ± 228.0

Row | Compound | length of time during which the inhibition action occurs (inhibition time of the rigidity) [1, 6] [min] | length of time during which the inhibition action occurs (inhibition time of the rigidity) [1, 7] [min] | length of time during which the inhibition action occurs (inhibition time of the rigidity) [1, 8] [min] | length of time during which the inhibition occurs (inhibition time of the rigidity) ([2]; 5 mg/kg i.v.) [min] | length of time during which the inhibition occurs (inhibition time of the rigidity) ([2]; 10 mg/kg i.v.) [min] | inhibition rate (Straub tail reaction) (Straub tail reaction; [9]) [%] | inhibition rate (Straub tail reaction) (Straub tail reaction; [10]) [%] | inhibition rate (Straub tail reaction) (Straub tail reaction; [11]) [%] | inhibition rate (Straub tail reaction) (Straub tail reaction; [12]) [%] | Spontaneous motor activity ([3]; 50 mg/kg p.o., control of A 2116.0 ± 256.6) [Counts/30 minutes] | Spontaneous motor activity [3, 13] [Counts/30 minutes] | death (survivals observed for 7 days) (Acute toxicity test; 1 g/kg p.o.) | LD50 at 168 h (Acute toxicity test; in vivo, po) [mg/kg] | sedative or taming action [4] | Spontaneous motor activity ([3]; 100 mg/kg p.o., control of B 2128.7 ± 228.0) [Counts/30 minutes] | muscle relaxing activity [5]
1 | C/C(=C\C(=O)NC1CC1)c1cccc(Cl)c1 [A, (E)-N-cyclopropyl-3-(3-chlorophenyl)-2-butenamide] | 13 | 37 | 36 | 9 | 13 | 40 | 40 | 100 | 100 | 1736.0 ± 366.6 | 1570.2 ± 326.9 | no death occurred | > 1000 | showing sedative or taming action | – | –
2 | C/C(=C\C(=O)NC1CC1)c1cccc(F)c1 [B, (E)-N-cyclopropyl-3-(3-fluorophenyl)-2-butenamide] | 6 | 12 | 53 | 8 | 12 | – | – | – | – | – | 2264.2 ± 506.0 | – | – | – | 1667.8 ± 152.4 | –
3 | O=C(/C=C/c1cccc(F)c1)NC1CC1 [C, cinflumide, reference compound] | 0 | 3 | 0 | – | 8 | 0 | 20 | 80 | 100 | – | – | – | – | – | – | most preferred effect
